Converted amounts (≈) assume the structure as drawn.
Experiments:
CRY2/PER2 = target: T1, CRY2/PER2 (Homo sapiens, UniProt O15055+Q49AN0); test: Modulation activity at CRY2/PER2 in human U2OS cells harboring per2-dLuc assessed as activation of per2 activity measured every 100 mins for 5 days by luciferase reporter gene assay; format: cell-based
T1 sequence (O15055 whole entry): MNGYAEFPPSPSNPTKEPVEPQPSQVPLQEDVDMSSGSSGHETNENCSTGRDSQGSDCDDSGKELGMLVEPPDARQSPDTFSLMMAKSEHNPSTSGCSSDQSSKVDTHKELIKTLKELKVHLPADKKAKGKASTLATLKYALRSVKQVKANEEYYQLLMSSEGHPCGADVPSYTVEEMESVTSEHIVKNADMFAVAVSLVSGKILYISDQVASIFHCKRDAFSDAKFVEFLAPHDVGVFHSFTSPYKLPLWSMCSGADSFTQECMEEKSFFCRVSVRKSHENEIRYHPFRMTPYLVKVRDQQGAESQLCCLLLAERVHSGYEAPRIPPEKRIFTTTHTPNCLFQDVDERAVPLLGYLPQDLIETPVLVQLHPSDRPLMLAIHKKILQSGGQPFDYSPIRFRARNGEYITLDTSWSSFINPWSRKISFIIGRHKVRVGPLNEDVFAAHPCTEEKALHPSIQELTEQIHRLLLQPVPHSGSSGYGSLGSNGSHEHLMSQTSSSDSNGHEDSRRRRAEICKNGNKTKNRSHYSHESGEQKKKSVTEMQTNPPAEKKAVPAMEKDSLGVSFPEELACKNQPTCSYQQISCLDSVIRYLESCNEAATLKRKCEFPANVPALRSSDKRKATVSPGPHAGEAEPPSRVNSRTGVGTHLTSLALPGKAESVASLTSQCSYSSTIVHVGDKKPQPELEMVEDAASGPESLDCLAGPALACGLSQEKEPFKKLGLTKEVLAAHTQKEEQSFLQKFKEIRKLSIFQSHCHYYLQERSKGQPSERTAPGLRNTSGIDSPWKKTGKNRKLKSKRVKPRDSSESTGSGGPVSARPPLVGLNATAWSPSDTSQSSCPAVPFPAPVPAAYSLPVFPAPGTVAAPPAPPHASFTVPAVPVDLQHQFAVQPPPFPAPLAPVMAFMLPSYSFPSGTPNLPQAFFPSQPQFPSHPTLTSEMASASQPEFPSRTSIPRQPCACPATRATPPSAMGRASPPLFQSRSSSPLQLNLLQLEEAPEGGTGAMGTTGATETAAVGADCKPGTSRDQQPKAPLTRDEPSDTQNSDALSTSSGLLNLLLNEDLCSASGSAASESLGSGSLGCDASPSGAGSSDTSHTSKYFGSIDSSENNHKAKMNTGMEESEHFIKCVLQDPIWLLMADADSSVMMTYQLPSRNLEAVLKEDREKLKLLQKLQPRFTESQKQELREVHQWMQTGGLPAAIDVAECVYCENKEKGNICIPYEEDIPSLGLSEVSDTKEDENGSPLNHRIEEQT
T1 sequence (Q49AN0 whole entry): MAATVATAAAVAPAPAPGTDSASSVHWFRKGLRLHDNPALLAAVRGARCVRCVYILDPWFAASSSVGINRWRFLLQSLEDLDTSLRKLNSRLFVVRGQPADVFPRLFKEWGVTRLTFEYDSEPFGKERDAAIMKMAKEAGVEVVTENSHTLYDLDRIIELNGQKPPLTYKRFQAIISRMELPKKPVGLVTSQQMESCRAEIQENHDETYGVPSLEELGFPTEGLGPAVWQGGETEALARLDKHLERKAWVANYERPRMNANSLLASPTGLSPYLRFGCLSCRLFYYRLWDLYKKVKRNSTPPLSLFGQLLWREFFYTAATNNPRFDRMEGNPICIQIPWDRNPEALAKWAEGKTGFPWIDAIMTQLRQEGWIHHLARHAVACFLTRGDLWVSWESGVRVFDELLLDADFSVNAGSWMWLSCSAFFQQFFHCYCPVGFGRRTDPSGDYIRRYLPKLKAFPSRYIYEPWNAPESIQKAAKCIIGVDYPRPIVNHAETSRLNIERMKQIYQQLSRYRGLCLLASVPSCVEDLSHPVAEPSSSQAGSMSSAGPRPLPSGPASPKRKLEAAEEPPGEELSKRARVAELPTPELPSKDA

[1] = Kinetic solubility in simulated gastric fluid; format: physicochemical; details: read-out: Kinetic_solubility
[2] = MRT in db/db mouse at 30 mg/kg, po qd after 1 to 24 hrs; format: ADME, organism-based; details: in vivo
[3] = Half life in db/db mouse at 30 mg/kg, po qd; format: ADME, organism-based; details: in vivo
[4] = Total Cmax in db/db mouse at 30 mg/kg, po qd after 1 to 24 hrs; format: ADME, organism-based; design: dose 30 mg/kg, route oral; details: in vivo
Mus musculus = test: Unbound Cmax in db/db mouse at 30 mg/kg, po qd after 1 to 24 hrs; format: ADME, organism-based; details: in vivo

| Structure (SMILES) | EC50 (CRY2/PER2) | further results |
| --- | --- | --- |
| CN1CCN(CC(O)Cn2c3ccc(F)cc3c3cc(F)ccc32)C1=O (stereo not drawn) | 0.406 µM | – |
| O=C1C(F)CCCN1CC(O)Cn1c2ccc(F)cc2c2cc(F)ccc21 (stereo not drawn) | 0.079 µM | – |
| CC(C)N1CCN(CC(O)Cn2c3ccc(F)cc3c3cc(F)ccc32)C1=O (stereo not drawn) | 0.605 µM | – |
| CC1CNC(=O)N1CC(O)Cn1c2ccc(F)cc2c2cc(F)ccc21 (stereo not drawn) | 1.19 µM | – |
| O=C1Cc2ccccc2CN1CC(O)Cn1c2ccc(F)cc2c2cc(F)ccc21 (stereo not drawn) | 15.2 µM | – |
| CC1CCN(CC(O)Cn2c3ccc(F)cc3c3cc(F)ccc32)C(=O)N1 (stereo not drawn) | 0.417 µM | – |
| CC(C)C1CCN(CC(O)Cn2c3ccc(F)cc3c3cc(F)ccc32)C1=O (stereo not drawn) | 0.261 µM | – |
| CCN1CCCN(CC(O)Cn2c3ccc(F)cc3c3cc(F)ccc32)C1=O (stereo not drawn) | 0.497 µM | – |
| O=C1NCCCN1CC(O)Cn1c2ccc(F)cc2c2cc(F)ccc21 (stereo not drawn) | 0.188 µM | solubility kinetic [1]: 85.6 µM (≈ 30.8 µg/mL); MRT [2]: 2.98 h; half-life [3]: 2.39 h; Cmax [4]: 1020 nM; fCmax (Mus musculus): 0.045 µM |
| CC1(C)CCN(CC(O)Cn2c3ccc(F)cc3c3cc(F)ccc32)C1=O (stereo not drawn) | 0.164 µM | – |
| CC(C)C1CCCN(CC(O)Cn2c3ccc(F)cc3c3cc(F)ccc32)C1=O (stereo not drawn) | 0.079 µM | – |
| CC1CCN(CC(O)Cn2c3ccc(F)cc3c3cc(F)ccc32)C1=O (stereo not drawn) | 0.424 µM | – |
| O=C1CCc2ccccc2N1CC(O)Cn1c2ccc(F)cc2c2cc(F)ccc21 (stereo not drawn) | 7.43 µM | – |
| O=C1COCCN1CC(O)Cn1c2ccc(F)cc2c2cc(F)ccc21 (stereo not drawn) | 0.447 µM | – |
| O=C1OCCCN1CC(O)Cn1c2ccc(F)cc2c2cc(F)ccc21 (stereo not drawn) | 4.98 µM | – |
| CC1CCC(=O)N1CC(O)Cn1c2ccc(F)cc2c2cc(F)ccc21 (stereo not drawn) | 0.199 µM | – |
| COC1CC(=O)N(CC(O)Cn2c3ccc(F)cc3c3cc(F)ccc32)C1 (stereo not drawn) | 1.14 µM | – |
| CC1CCC(=O)N(CC(O)Cn2c3ccc(F)cc3c3cc(F)ccc32)C1 (stereo not drawn) | 0.224 µM | – |
| O=C1CCC2CC2N1CC(O)Cn1c2ccc(F)cc2c2cc(F)ccc21 (stereo not drawn) | 0.565 µM | – |
| CC1CCCN(CC(O)Cn2c3ccc(F)cc3c3cc(F)ccc32)C1=O (stereo not drawn) | 1.15 µM | – |
| O=C1c2ccccc2CN1CC(O)Cn1c2ccc(F)cc2c2cc(F)ccc21 (stereo not drawn) | 1.49 µM | – |
| CC1(C)CCCN(CC(O)Cn2c3ccc(F)cc3c3cc(F)ccc32)C1=O (stereo not drawn) | 0.463 µM | – |
| O=C1CCCN1CC(O)Cn1c2ccc(F)cc2c2cc(F)ccc21 (stereo not drawn) | 0.625 µM | solubility kinetic [1]: 148 µM (≈ 51.1 µg/mL); MRT [2]: 3.32 h; half-life [3]: 2.95 h; Cmax [4]: 415 nM; fCmax (Mus musculus): 0.011 µM |
| COC1CCCN(CC(O)Cn2c3ccc(F)cc3c3cc(F)ccc32)C1=O (stereo not drawn) | 0.33 µM | solubility kinetic [1]: 188 µM (≈ 72.9 µg/mL); MRT [2]: 2.68 h; half-life [3]: 2.16 h; Cmax [4]: 235 nM; fCmax (Mus musculus): 0.007 µM |
| O=C1C(c2ccccc2)CCN1CC(O)Cn1c2ccc(F)cc2c2cc(F)ccc21 (stereo not drawn) | 0.487 µM | – |
| CN1CCCN(CC(O)Cn2c3ccc(F)cc3c3cc(F)ccc32)C1=O (stereo not drawn) | 0.719 µM | solubility kinetic [1]: 162 µM (≈ 60.4 µg/mL); MRT [2]: 3.51 h; half-life [3]: 2.57 h; Cmax [4]: 63 nM; fCmax (Mus musculus): 0.002 µM |
| O=C1N(CC(O)Cn2c3ccc(F)cc3c3cc(F)ccc32)CCN1c1ccccc1 (stereo not drawn) | 0.528 µM | – |

| Structure (SMILES) | EC50 (CRY2/PER2) | further results |
| --- | --- | --- |
| CCC1CCN(CC(O)Cn2c3ccc(F)cc3c3cc(F)ccc32)C1=O (stereo not drawn) | 0.417 µM | – |
| O=C1OCCN1CC(O)Cn1c2ccc(F)cc2c2cc(F)ccc21 (stereo not drawn) | 9.77 µM | – |
| O=C1CCCCN1CC(O)Cn1c2ccc(F)cc2c2cc(F)ccc21 (stereo not drawn) | 0.192 µM | – |
| COC1CNC(=O)N(CC(O)Cn2c3ccc(F)cc3c3cc(F)ccc32)C1 (stereo not drawn) | 1.12 µM | – |
| O=C1C2CC2CN1CC(O)Cn1c2ccc(F)cc2c2cc(F)ccc21 (stereo not drawn) | 0.246 µM | – |
| CC1CCCC(=O)N1CC(O)Cn1c2ccc(F)cc2c2cc(F)ccc21 (stereo not drawn) | 0.541 µM | – |
| CC(C)N1CCCN(CC(O)Cn2c3ccc(F)cc3c3cc(F)ccc32)C1=O (stereo not drawn) | 0.62 µM | – |
| O=C1N(CC(O)Cn2c3ccc(F)cc3c3cc(F)ccc32)CCC1(F)F (stereo not drawn) | 0.716 µM | – |
| O=C1C(c2ccccc2)CCCN1CC(O)Cn1c2ccc(F)cc2c2cc(F)ccc21 (stereo not drawn) | 0.547 µM | – |
| CCC1CCCN(CC(O)Cn2c3ccc(F)cc3c3cc(F)ccc32)C1=O (stereo not drawn) | 0.332 µM | – |
| CC1CCN(CC(O)Cn2c3ccc(F)cc3c3cc(F)ccc32)C(=O)C1 (stereo not drawn) | 0.128 µM | – |
| CC1CCNC(=O)N1CC(O)Cn1c2ccc(F)cc2c2cc(F)ccc21 (stereo not drawn) | 0.742 µM | – |
| O=C1N(CC(O)Cn2c3ccc(F)cc3c3cc(F)ccc32)CCCN1c1ccccc1 (stereo not drawn) | 0.171 µM | – |
| CC1CC(=O)N(CC(O)Cn2c3ccc(F)cc3c3cc(F)ccc32)C1 (stereo not drawn) | 1.03 µM | – |
| O=C1C2CCC(C2)N1CC(O)Cn1c2ccc(F)cc2c2cc(F)ccc21 (stereo not drawn) | 0.163 µM | solubility kinetic [1]: 168 µM (≈ 62.2 µg/mL); MRT [2]: 2.92 h; half-life [3]: 2.14 h; Cmax [4]: 551 nM; fCmax (Mus musculus): 0.01 µM |
| CC1CN(CC(O)Cn2c3ccc(F)cc3c3cc(F)ccc32)C(=O)N1 (stereo not drawn) | 0.667 µM | solubility kinetic [1]: 181 µM (≈ 64.9 µg/mL); MRT [2]: 4.16 h; half-life [3]: 2.58 h; Cmax [4]: 557 nM; fCmax (Mus musculus): 0.01 µM |
| O=C1N(CC(O)Cn2c3ccc(F)cc3c3cc(F)ccc32)CCCC1(F)F (stereo not drawn) | 0.194 µM | – |
| O=C1CC2CC2CN1CC(O)Cn1c2ccc(F)cc2c2cc(F)ccc21 (stereo not drawn) | 0.149 µM | – |
| CS(=O)(=O)N(Cc1ccco1)CC(O)Cn1c2ccccc2c2ccccc21 (stereo not drawn) | 0.87 µM | – |
| CC1CNC(=O)N(CC(O)Cn2c3ccc(F)cc3c3cc(F)ccc32)C1 (stereo not drawn) | 0.833 µM | – |
| O=C1C2CC2CCN1CC(O)Cn1c2ccc(F)cc2c2cc(F)ccc21 (stereo not drawn) | 0.167 µM | – |
| O=C1Cc2ccccc2N1CC(O)Cn1c2ccc(F)cc2c2cc(F)ccc21 (stereo not drawn) | 3.73 µM | – |
| CCN1CCN(CC(O)Cn2c3ccc(F)cc3c3cc(F)ccc32)C1=O (stereo not drawn) | 1.06 µM | – |
| COC1CCC(=O)N(CC(O)Cn2c3ccc(F)cc3c3cc(F)ccc32)C1 (stereo not drawn) | 0.397 µM | – |
| O=C1c2ccccc2CCN1CC(O)Cn1c2ccc(F)cc2c2cc(F)ccc21 (stereo not drawn) | 1.36 µM | – |
| O=C1C(F)CCN1CC(O)Cn1c2ccc(F)cc2c2cc(F)ccc21 (stereo not drawn) | – | solubility kinetic [1]: 184 µM (≈ 66.7 µg/mL); MRT [2]: 3.27 h; half-life [3]: 2.97 h; Cmax [4]: 1010 nM; fCmax (Mus musculus): 0.03 µM |
| COC1CCN(CC(O)Cn2c3ccc(F)cc3c3cc(F)ccc32)C1=O (stereo not drawn) | 0.855 µM | – |
